According to patent publication US20200325487A1, “A COM[…] FOR REDUCING RANDOM I[…] WHEN TR[…]” (UNIVERSITEIT LEIDEN, priority 2017, published 2020):

Assays:
[1] = tested on: wild type, ku80, mre11-2 and ku80mre11-2 mutant seedlings; experiment: Assays for sensitivity to bleomycin and methyl methane sulfonate (MMS); format: in vivo, Arabidopsis thaliana; conditions: ku80mre11-2 double mutant, 0.02, 0.05 μg/ml bleomycin or 0.005%, 0.01% MMS; for fresh weight of double mutant plants in comparison with wild type and each of the single mutants: 10-days-old plate-grown plants; for growth phenotype of double mutant compared with each of the single mutants: scored 2 weeks after germination
Method: Seeds of wild type, ku80, mre11-2 and ku80mre11-2 mutants were surface-sterilized as described (Weijers et al. 2001) and germinated on solid % MS medium without additions or containing 0.02 μg/ml or 0.05 μg/ml bleomycin (Sigma), 0.005% (v/v), 0.007% or 0.01% MMS (Sigma) and photographed after 2 weeks. After 10 days growth, the fresh weight (compared with controls) was determined by weighing the seedlings in batches of 20 in duplicate. Statistical analyses were performed using Prism version 5 (GraphPad Software Inc.).

[2] = tested on: root tips of Arabidopsis seedlings (wild type, ku80, mre11-2, ku80mre11-2); experiment: Cell death assay (propidium iodide staining of root tips); format: in vivo, Arabidopsis thaliana; conditions: 0.05 μg/ml bleomycin for 1 day and 4 days; 4-d-old seedlings; more cell death in ku80mre11-2 double mutant
Method: Four days old seedlings on MS-agar plates were transferred to new MS-plates with DNA damaging agents. After one or four days treatments, the seedlings were placed in propidium iodide solution (PI, Sigma-Aldrich, 5 μg/ml in water) for 1 min and rinsed three times with water. Root tips were then transferred to slides in a drop of water and covered with a cover slip for observation under the fluorescence microscope.

Compound | fresh weight of double mutant plants in comparison with wild type and each of the single mutants [1] | growth phenotype of double mutant compared with each of the single mutants [1] | cell death in the root meristem (PI staining) [2]
COS(C)(=O)=O [MMS, Methyl Methane Sulfonate] | dramatically reduced | grew more slowly and developed fewer true leaves | –
bleomycin | dramatically reduced | grew more slowly and developed fewer true leaves | caused cell death in the root meristem of both wild type and the mutants
